Experimental data as given in US20130212744A1, “METHOD OF REDUCING INSECT-VECTORED VIRAL INFECTIONS” (priority 2010, published 2013).
Like-named read-outs stand apart in the source and are kept apart here.

What was measured:
Format in all cases: in vivo
[1] = tested on: whitefly Bemisia tabaci adults; experiment: Foliar use field trial on tomato, efficacy on whitefly adults; details: Bemisia tabaci, foliar
Description: (§1) Two studies were carried out in Elhasanya, Egypt in 2009 on tomato plants of the variety Fayrouz with the main goal to measure efficacy on the whitefly Bemisia tabaci. The plot size was 4.8 m^2 and 6 replicates were used in the trial. Products were applied 3 times on young tomato plants at BBCH stages 14, 17 and 51 at spray intervals between 12 and 19 days. The spray volume was at the first application 350 l/ha and later 500 l/ha. The evaluation of this study was done counting the adult whiteflies (Bemisia tabaci) as well as the nymphs and the eggs in each plot. In addition to the direct whitefly effect, visual symptoms of the virus, mainly TYLCV (tomato yellow leaf curl virus) were evaluated also.
(§2) ASM=Acibenzolar-S-methyl. WG 50=Actigard® 50WG, a water-dispersible granule with the active ingredient ASM CYNT=Cyantraniliprole. WG 40=Cyazypyr®, a water dispersable granule with the active ingredient CYNT. Results on whitefly adults. Trial 1

[2] = tested on: whitefly Bemisia tabaci nymphs; experiment: Foliar use field trial on tomato, efficacy on whitefly nymphs; details: Bemisia tabaci, foliar
Description: as §1, §2

[3] = tested on: TYLCV (tomato yellow leaf curl virus); experiment: Foliar use field trial on tomato, infected leaf area by TYLC virus
Description: as §1, §2
Evaluation of percentage of infected leaf area by TYLC virus (average of 45 plants evaluated per treatment) Trial 1

[4] = tested on: whitefly Bemisia tabaci nymphs; experiment: Soil use (drench) field trial on tomato, efficacy on whitefly nymphs; details: for Emax at 12.5 g/ha: 12.5 g ai/ha; for Emax at 25 g/ha: 25 g ai/ha
Description: as §1, with “Two soil applied” for “Two”, “plants” for “plants of the variety Fayrouz”, “Products were applied 3 times on young tomato plants at BBCH stages 14, 17 and 51 at spray intervals between 12 and 19 days.” left out, “350” for “350 l/ha and later 500”

Structure (SMILES): CSC(=O)c1cccc2nnsc12 [ASM, S-methyl benzo[1,2,3]thiadiazole-7-carbothioate]
- Emax ([1]; 12.5 g ai/hl, 5DAA1, Trial 1, read-out: % Efficacy on Adults): 53%
- Emax ([1]; 12.5 g ai/hl, 5DAA1, Trial 2, read-out: % Efficacy on Adults): 53%
- Emax ([1]; 12.5 g ai/hl, 5DAA2, Trial 1, read-out: % Efficacy on Adults): 45%
- Emax ([1]; 12.5 g ai/hl, 5DAA2, Trial 2, read-out: % Efficacy on Adults): 45%
- Emax ([1]; 12.5 g ai/hl, 5DAA3, Trial 1, read-out: % Efficacy on Adults): 55%
- Emax ([1]; 12.5 g ai/hl, 5DAA3, Trial 2, read-out: % Efficacy on Adults): 55%
- Emax ([1]; 12.5 g ai/hl, 10DAA1, Trial 1, read-out: % Efficacy on Adults): 43%
- Emax ([1]; 12.5 g ai/hl, 10DAA1, Trial 2, read-out: % Efficacy on Adults): 43%
- Emax ([1]; 12.5 g ai/hl, 10DAA2, Trial 1, read-out: % Efficacy on Adults): 37%
- Emax ([1]; 12.5 g ai/hl, 10DAA2, Trial 2, read-out: % Efficacy on Adults): 37%
- Emax ([1]; 12.5 g ai/hl, 10DAA3, Trial 1, read-out: % Efficacy on Adults): 46%
- Emax ([1]; 12.5 g ai/hl, 10DAA3, Trial 2, read-out: % Efficacy on Adults): 46%
- Emax ([1]; 12.5 g ai/hl, 15DAA3, Trial 1, read-out: % Efficacy on Adults): 38%
- Emax ([1]; 12.5 g ai/hl, 15DAA3, Trial 2, read-out: % Efficacy on Adults): 38%
- Emax ([1]; 12.5 g ai/hl, 20DAA3, Trial 1, read-out: % Efficacy on Adults): 12%
- Emax ([1]; 12.5 g ai/hl, 20DAA3, Trial 2, read-out: % Efficacy on Adults): 12%
- Emax ([1]; 12.5 g ai/hl, Avg, Trial 1, read-out: % Efficacy on Adults Avg % C): 41%
- Emax ([1]; 25 g ai/hl, 5DAA1, Trial 1, read-out: % Efficacy on Adults): 59%
- Emax ([1]; 25 g ai/hl, 5DAA1, Trial 2, read-out: % Efficacy on Adults): 59%
- Emax ([1]; 25 g ai/hl, 5DAA2, Trial 1, read-out: % Efficacy on Adults): 52%
- Emax ([1]; 25 g ai/hl, 5DAA2, Trial 2, read-out: % Efficacy on Adults): 52%
- Emax ([1]; 25 g ai/hl, 5DAA3, Trial 1, read-out: % Efficacy on Adults): 57%
- Emax ([1]; 25 g ai/hl, 5DAA3, Trial 2, read-out: % Efficacy on Adults): 57%
- Emax ([1]; 25 g ai/hl, 10DAA1, Trial 1, read-out: % Efficacy on Adults): 43%
- Emax ([1]; 25 g ai/hl, 10DAA1, Trial 2, read-out: % Efficacy on Adults): 43%
- Emax ([1]; 25 g ai/hl, 10DAA2, Trial 1, read-out: % Efficacy on Adults): 39%
- Emax ([1]; 25 g ai/hl, 10DAA2, Trial 2, read-out: % Efficacy on Adults): 39%
- Emax ([1]; 25 g ai/hl, 10DAA3, Trial 1, read-out: % Efficacy on Adults): 49%
- Emax ([1]; 25 g ai/hl, 10DAA3, Trial 2, read-out: % Efficacy on Adults): 49%
- Emax ([1]; 25 g ai/hl, 15DAA3, Trial 1, read-out: % Efficacy on Adults): 40%
- Emax ([1]; 25 g ai/hl, 15DAA3, Trial 2, read-out: % Efficacy on Adults): 40%
- Emax ([1]; 25 g ai/hl, 20DAA3, Trial 1, read-out: % Efficacy on Adults): 22%
- Emax ([1]; 25 g ai/hl, 20DAA3, Trial 2, read-out: % Efficacy on Adults): 22%
- Emax ([1]; 25 g ai/hl, Avg, Trial 1, read-out: % Efficacy on Adults Avg % C): 45%
- Emax ([2]; 12.5 g ai/hl, 5DAA2, Trial 1, read-out: % Efficacy on Nymphs): 5%
- Emax ([2]; 12.5 g ai/hl, 5DAA2, Trial 2, read-out: % Efficacy on Nymphs): 5%
- Emax ([2]; 12.5 g ai/hl, 5DAA3, Trial 1, read-out: % Efficacy on Nymphs): 62%
- Emax ([2]; 12.5 g ai/hl, 5DAA3, Trial 2, read-out: % Efficacy on Nymphs): 62%
- Emax ([2]; 12.5 g ai/hl, 10DAA2, Trial 1, read-out: % Efficacy on Nymphs): 52%
- Emax ([2]; 12.5 g ai/hl, 10DAA2, Trial 2, read-out: % Efficacy on Nymphs): 52%
- Emax ([2]; 12.5 g ai/hl, 10DAA3, Trial 1, read-out: % Efficacy on Nymphs): 46%
- Emax ([2]; 12.5 g ai/hl, 10DAA3, Trial 2, read-out: % Efficacy on Nymphs): 46%
- Emax ([2]; 12.5 g ai/hl, 15DAA3, Trial 1, read-out: % Efficacy on Nymphs): 42%
- Emax ([2]; 12.5 g ai/hl, 15DAA3, Trial 2, read-out: % Efficacy on Nymphs): 42%
- Emax ([2]; 12.5 g ai/hl, 20DAA3, Trial 1, read-out: % Efficacy on Nymphs): 27%
- Emax ([2]; 12.5 g ai/hl, 20DAA3, Trial 2, read-out: % Efficacy on Nymphs): 27%
- Emax ([2]; 12.5 g ai/hl, Avg, Trial 1, read-out: % Efficacy on Nymphs Avg % C): 39%
- Emax ([2]; 25 g ai/hl, 5DAA2, Trial 1, read-out: % Efficacy on Nymphs): 57%
- Emax ([2]; 25 g ai/hl, 5DAA2, Trial 2, read-out: % Efficacy on Nymphs): 57%
- Emax ([2]; 25 g ai/hl, 5DAA3, Trial 1, read-out: % Efficacy on Nymphs): 66%
- Emax ([2]; 25 g ai/hl, 5DAA3, Trial 2, read-out: % Efficacy on Nymphs): 66%
- Emax ([2]; 25 g ai/hl, 10DAA2, Trial 1, read-out: % Efficacy on Nymphs): 65%
- Emax ([2]; 25 g ai/hl, 10DAA2, Trial 2, read-out: % Efficacy on Nymphs): 65%
- Emax ([2]; 25 g ai/hl, 10DAA3, Trial 1, read-out: % Efficacy on Nymphs): 53%
- Emax ([2]; 25 g ai/hl, 10DAA3, Trial 2, read-out: % Efficacy on Nymphs): 53%
- Emax ([2]; 25 g ai/hl, 15DAA3, Trial 1, read-out: % Efficacy on Nymphs): 55%
- Emax ([2]; 25 g ai/hl, 15DAA3, Trial 2, read-out: % Efficacy on Nymphs): 55%
- Emax ([2]; 25 g ai/hl, 20DAA3, Trial 1, read-out: % Efficacy on Nymphs): 39%
- Emax ([2]; 25 g ai/hl, 20DAA3, Trial 2, read-out: % Efficacy on Nymphs): 39%
- Emax ([2]; 25 g ai/hl, Avg, Trial 1, read-out: % Efficacy on Nymphs Avg % C): 56%
- % Infected Surface area with virus / plant ([3]; 12.5 g ai/hl, 5DAA2, Trial 1): 0.0%
- % Infected Surface area with virus / plant ([3]; 12.5 g ai/hl, 5DAA2, Trial 2): 0.0%
- % Infected Surface area with virus / plant ([3]; 12.5 g ai/hl, 5DAA3, Trial 1): 1.0%
- % Infected Surface area with virus / plant ([3]; 12.5 g ai/hl, 5DAA3, Trial 2): 1.0%
- % Infected Surface area with virus / plant ([3]; 12.5 g ai/hl, 10DAA3, Trial 1): 9.6%
- % Infected Surface area with virus / plant ([3]; 12.5 g ai/hl, 10DAA3, Trial 2): 9.6%
- % Infected Surface area with virus / plant ([3]; 12.5 g ai/hl, 15DAA3, Trial 1): 9.9%
- % Infected Surface area with virus / plant ([3]; 12.5 g ai/hl, 15DAA3, Trial 2): 9.9%
- % Infected Surface area with virus / plant ([3]; 12.5 g ai/hl, 20DAA3, Trial 1): 10.7%
- % Infected Surface area with virus / plant ([3]; 12.5 g ai/hl, 20DAA3, Trial 2): 10.7%
- % Infected Surface area with virus / plant ([3]; 12.5 g ai/hl, 24DAA3, Trial 1): 14.4%
- % Infected Surface area with virus / plant ([3]; 12.5 g ai/hl, 24DAA3, Trial 2): 14.4%
- % Infected Surface area with virus / plant ([3]; 25 g ai/hl, 5DAA2, Trial 1): 0.0%
- % Infected Surface area with virus / plant ([3]; 25 g ai/hl, 5DAA2, Trial 2): 0.0%
- % Infected Surface area with virus / plant ([3]; 25 g ai/hl, 5DAA3, Trial 1): 0.0%
- % Infected Surface area with virus / plant ([3]; 25 g ai/hl, 5DAA3, Trial 2): 0.0%
- % Infected Surface area with virus / plant ([3]; 25 g ai/hl, 10DAA3, Trial 1): 3.3%
- % Infected Surface area with virus / plant ([3]; 25 g ai/hl, 10DAA3, Trial 2): 3.3%
- % Infected Surface area with virus / plant ([3]; 25 g ai/hl, 15DAA3, Trial 1): 4.7%
- % Infected Surface area with virus / plant ([3]; 25 g ai/hl, 15DAA3, Trial 2): 4.7%
- % Infected Surface area with virus / plant ([3]; 25 g ai/hl, 20DAA3, Trial 1): 5.0%
- % Infected Surface area with virus / plant ([3]; 25 g ai/hl, 20DAA3, Trial 2): 5.0%
- % Infected Surface area with virus / plant ([3]; 25 g ai/hl, 24DAA3, Trial 1): 7.2%
- % Infected Surface area with virus / plant ([3]; 25 g ai/hl, 24DAA3, Trial 2): 7.2%
- Emax at 12.5 g/ha ([4]; 25DAA1, Trial 2): 29%
- Emax at 12.5 g/ha ([4]; 30DAA1, Trial 2): 39%
- Emax at 12.5 g/ha ([4]; 35DAA1, Trial 2): 22%
- Emax at 12.5 g/ha ([4]; 40DAA2, Trial 2): 11%
- Emax at 25 g/ha ([4]; 25DAA1, Trial 2): 69%
- Emax at 25 g/ha ([4]; 30DAA1, Trial 2): 43%
- Emax at 25 g/ha ([4]; 35DAA1, Trial 2): 14%
- Emax at 25 g/ha ([4]; 40DAA2, Trial 2): 6%
- Emax at 12.5 g/ha ([4]; 240 h, 10DAA, Trial 1): 47%
- Emax at 25 g/ha ([4]; 240 h, 10DAA, Trial 1): 50%
- Emax at 12.5 g/ha ([4]; 360 h, 15DAA, Trial 1): 21%
- Emax at 25 g/ha ([4]; 360 h, 15DAA, Trial 1): 47%
- Emax at 12.5 g/ha ([4]; 480 h, 20DAA, Trial 1): 31%
- Emax at 25 g/ha ([4]; 480 h, 20DAA, Trial 1): 54%
- Emax at 12.5 g/ha ([4]; 600 h, 25DAA, Trial 1): 60%
- Emax at 25 g/ha ([4]; 600 h, 25DAA, Trial 1): 50%
- Emax at 12.5 g/ha ([4]; 720 h, 30DAA, Trial 1): 47%
- Emax at 25 g/ha ([4]; 720 h, 30DAA, Trial 1): 49%
- Emax at 12.5 g/ha ([4]; 840 h, 35DAA, Trial 1): 41%
- Emax at 25 g/ha ([4]; 840 h, 35DAA, Trial 1): 44%
- Emax at 12.5 g/ha ([4]; 960 h, 40DAA, Trial 1): 28%
- Emax at 25 g/ha ([4]; 960 h, 40DAA, Trial 1): 33%
